The source of these data is patent US9988407B2, “Prodrugs of prostate specific membrane antigen (PSMA) inhibitor” (THE JOHNS HOPKINS UNIVERSITY, priority 2014, dated 2018).

“Also recorded” adds a separate entry of the source.

Series [1] can be described thus: Metabolic stability in mouse liver S9. Conditions: Mouse S9, 10 μM, 37° C. The series is classed as in vitro ADME.
Series [2] is described as follows: Metabolic stability in mouse liver microsomes. The series is classed as in vitro ADME. As to conditions: 10 μM, 37° C. On the procedure:
(§1) For metabolic stability, plasma (mouse, dog, monkey and human) and liver microsomes (mouse, dog, monkey and human) were used. For stability, prodrugs (10 μM) were spiked in each matrix and incubated in an orbital shaker at 37° C. At predetermined times (0, 30 and 60 min), 100 μL aliquots of the mixture in triplicate were removed and the reaction quenched by addition of three times the volume of ice cold acetonitrile spiked with the internal standard (losartan 5 μM). The samples were vortexed for 30 s and centrifuged 12000 g for 10 min. 50 μL supernatant diluted with 50 μL water was transferred to a 250 μL polypropylene vial sealed with a Teflon cap. Prodrug disappearance was monitored over time using a liquid chromatography and tandem mass spectrometry (LC/MS/MS) method as described below.
(§2) For LC/MS/MS, prodrugs were separated with Thermo Scientific Accela UPLC system coupled to Accela open autosampler on an Agilent C18 (100×2.1 mm id) UPLC column. The autosampler was temperature controlled and operating at 10° C. The mobile phase used for the chromatographic separation was composed of acetonitrile/water containing 0.1% formic acid and was run at a flow rate of 0.5 mL/minute for 4.5 minutes using gradient elution. The column effluent was monitored using TSQ Vantage triple-quadrupole mass spectrometric detector, equipped with an electrospray probe set in the positive ionization mode. Samples were introduced into the ionization source through a heated nebulized probe (350° C.).
(§3) For quantification of compound remaining, disappearance of prodrugs was measured from ratio of peak areas of analyte to IS. Percentage remaining was calculated in the following manner: […]
Background: Microsomes from liver hold many membrane-bound enzymes, among them those of drug oxidation.

The nature of series [3]: Chemical stability in HBSS buffer (pH 7.4) / simulated gastric fluid. The series is classed as physicochemical. Conditions: for Percentage remaining: HBSS, 10 μM, 37° C.; for chemical stability: chemical hydrolysis / HBSS buffer. How it is done: The chemical stability of prodrugs was evaluated using simulated gastric fluid (pH 1.2) and Hanks' Balanced Salt Solution (HBSS) buffer (pH 7.4). Briefly, prodrugs were spiked (10 μM) in respective solutions and incubated at 37° C. for 1 h. At predetermined time points (0, 30 and 60 min), aliquots of 100 μL were removed and diluted with 100 μL of water. Prodrug disappearance was monitored using the developed liquid chromatography and tandem mass spectrometry (LC/MS/MS) method described below.
as §2, §3

The nature of series [4]: Metabolic stability in mouse plasma. As to conditions: 10 μM, 37° C. The series is classed as in vitro ADME. On the procedure:
as §1, §2, §3

Series [5] in a line: In vivo pharmacokinetics in mice, peroral, bioanalysis method 1 (total prodrug exposure). As to conditions: mice, oral dosing. On the procedure:
Blood was obtained via cardiac puncture and tissue dissected at 0 min, 15 min, 30 min, 1 h, 2 h, and 4 h post dose (n=3 per time point). Single time point studies were conducted at 30 min (N=3) following dosing. Plasma was harvested from blood by centrifugation. Mean concentration-time data was used for pharmacokinetic (PK) analysis. Non-compartmental-analysis module in WinNonlin® (version 5.3) was used to assess pharmacokinetic parameters. Peak plasma concentrations (Cmax) and time to Cmax (Tmax) were the observed values. Area under the curve (AUC) was calculated by log-linear (p.o.) trapezoidal rule to the end of sample collection (AUClast) and extrapolated to infinity (AUC0-∞) by dividing the last quantifiable concentration by the terminal disposition rate constant (ke). Terminal half-life (t1/2) was estimated from first order kinetics: t1/2=0.693/ke.
Briefly, prior to extraction, frozen samples were thawed on ice. For plasma extraction, 50 μL of the calibration standards or samples were transferred into silanized microcentrifuge tubes. Sample preparation involved a single liquid extraction by addition of 300 μL of methanol as extraction solution with internal standard (i.e., 5 μM of 2-PMSA in methanol), followed by vortexing for 30 s and then centrifugation at 12000 g for 10 min. Supernatant was transferred (˜250 μL) and evaporated to dryness at 40° C. under a gentle stream of nitrogen. The residue was reconstituted with 100 μL of derivatizing agent, n-butanol with 3N HCl, and samples were vortexed. The samples were heated at ˜60 OC in a shaking water bath for 30 min. At the end of 30 min, the derivatized samples were allowed to cool at room temperature and dried again for removal of derivatizing reagent, under a gentle stream of nitrogen. The residue was reconstituted in 100 μL of 30% acetonitrile in water v/v. The samples were vortexed and centrifuged again. ˜80 μL supernatant was transferred to a 250 μL polypropylene vial sealed with a Teflon cap and a volume of 10 μL was injected onto the ultra-performance liquid chromatography (UPLC) instrument for quantitative analysis. Chromatographic analysis was performed using an Accela™ ultra high-performance system consisting of an analytical pump, and an autosampler coupled with TSQ Vantage mass spectrometer (Thermo Fisher Scientific Inc., Waltham Mass.). […] The mobile phase used was composed of 0.1% formic acid in acetonitrile and 0.1% formic acid in H2O with gradient elution, starting with 20% (organic) linearly increasing to 65% up to 2.5 min, maintaining at 65% (2.5-3.5 min) and reequilibrating to 30% by 5 min. The total run time for each analyte was 5.0 min.

Series [6] can be described thus: In vitro metabolic stability screen in plasma and liver subcellular fractions (results in words). The series is classed as in vitro ADME. As to conditions: 60 min incubation. On the procedure:
as §1, §2
For quantification of compound remaining, disappearance of prodrugs was measured from ratio of peak areas of analyte to IS. Percentage remaining was calculated in the following manner:
In general, the prodrugs were screened by an in vitro metabolic stability screen, and if positive, followed by an in vivo single time point pharmacokinetic study, and in select cases, an in vivo full time course pharmacokinetic study (FIG. 3). In this Example, the four acidic functional groups in 2-PMPA were systematically capped. The carboxylic acids were first masked with simple alkyl esters (Compounds 1, 2, and 3). In vitro chemical and metabolic stability of the prodrugs then were conducted, following 60 min incubation in plasma stability screens for prodrugs.

Series [7] can be described thus: In vivo pharmacokinetics in mice, peroral, bioanalysis method 2 (2-PMPA release). Conditions: rodents and dogs. On the procedure: Blood was obtained via cardiac puncture and tissue dissected at 0 min, 15 min, 30 min, 1 h, 2 h, and 4 h post dose (n=3 per time point). Single time point studies were conducted at 30 min (N=3) following dosing. Plasma was harvested from blood by centrifugation. Mean concentration-time data was used for pharmacokinetic (PK) analysis. Non-compartmental-analysis module in WinNonlin® (version 5.3) was used to assess pharmacokinetic parameters. Peak plasma concentrations (Cmax) and time to Cmax (Tmax) were the observed values. Area under the curve (AUC) was calculated by log-linear (p.o.) trapezoidal rule to the end of sample collection (AUClast) and extrapolated to infinity (AUC0-∞) by dividing the last quantifiable concentration by the terminal disposition rate constant (ke). […] The tissues were stored in −20° C. for 1 h and then homogenized. The calibration curve for the tissues was developed using naïve mouse brains from untreated animals as a matrix. For sciatic nerve, the nerves were weighed and homogenized in 50 μL methanol and the calibration curve was developed using naïve sciatic nerves from untreated animals as a matrix. The samples were vortexed and centrifuged. […] Supernatant was dried under a gentle stream of nitrogen at 45° C. and the residue reconstituted with 75 μL of acetonitrile and vortexed. 25 μL of derivatizing agent N-tert-Butyldimethysilyl-N-methyltrifluoro-acetamide (MTBSTFA) was added to microcentrifuge tubes, vortexed, and heated at ˜60 OC for 40 min. At the end of 40 min, the derivatized samples ˜75 μL were transferred to a 250 μL polypropylene vials and were analyzed via LC/MS/MS. Chromatographic analysis was performed using an Accela™ ultra high-performance system consisting of an analytical pump, and an autosampler coupled with TSQ Vantage mass spectrometer (Thermo Fisher Scientific Inc., Waltham Mass.). […] The total run time for each analyte was 5.0 min. Chromatographic analysis will be performed on Accela UPLC.

Series [8] in a line: Metabolic stability in human liver microsomes. Type of series: in vitro ADME. As to conditions: 10 μM, 37° C. On the procedure: as §1, §2, §3
Series [9] is described as follows: Metabolic stability in human plasma. Type of series: in vitro ADME. Conditions: 10 μM, 37° C. On the procedure: as §1, §2, §3

In the case of `COC(=O)CCC(CP(=O)(OCOC(=O)OC(C)C)OCOC(=O)OC(C)C)C(=O)OC` (stereo not shown) [Compound 6, Dimethyl 2-((bis{[(isopropoxycarbonyl)oxy]methoxy}phosphoryl)methyl)-pentanedioate], the Percentage remaining in series [1] (0 min) was found to be 100%; in series [1] (30 min) it was 1%; in series [1] (60 min), 0.1%; in series [2] (0 min), 100%; in [2] (30 min), 2%; in [2] (60 min) it was 0.1%. The Percentage remaining was 100% in series [3] (0 min); 101% in series [3] (30 min); 93% in series [3] (60 min); 100% in [4] (0 min); 2% in series [4] (30 min); 0.4% in series [4] (60 min). Also, the “chemical stability” value in [3] is on record as “stable to chemical hydrolysis”; in series [3] (listed as JHU 2110), “stable in HBSS buffer”. The “permeability in vivo” value in series [5] was “good compound penetrability; also recorded: good permeability”; in series [5] (listed as JHU 2110), “most permeable”. For the same molecule, the “in vitro metabolic stability” value in series [6] is “unstable in mouse plasma and mouse liver microsomes”.

On to `CCOCCOCCOCCOCCOCCOCCOP(=O)(CC(CCC(=O)OC)C(=O)OC)OCCOCCOCCOCCOCCOCCOCC` (stereo not shown) [Compound 13, Dimethyl 2-((bis((3,6,9,12,15,18-hexaoxaicosyl)oxy)phosphoryl)methyl)pentanedioate], for which the Percentage remaining in [1] (0 min) worked out at 100%; in series [1] (30 min), 106%; in [1] (60 min), 100%; in series [2] (0 min), 100%; in series [2] (30 min) it was 99%; in [2] (60 min), 100%. Besides, the Percentage remaining is listed as 100% in series [3] (0 min); 99% in [3] (30 min); 101% in [3] (60 min); 100% in series [4] (0 min); 2% in series [4] (30 min); 1% in [4] (60 min). The “in vitro metabolic stability” value in [6] is recorded as “too stable in some of the samples”.

In the case of `COC(=O)C(CCC(=O)O)CP(=O)(OCOC(=O)OC(C)C)OCOC(=O)OC(C)C` (stereo not shown) [Compound 7, 4-((Bis{[(isopropoxycarbonyl)oxy]methoxy}phosphoryl)methyl)-5-methoxy-5-oxopentanoic acid], the “chemical stability” value in series [3] is “stable to chemical hydrolysis”. The “permeability in vivo” value in series [5] was “good compound penetrability; also recorded: good permeability”. In addition, the “in vitro metabolic stability” value in series [6] is “unstable in mouse plasma and mouse liver microsomes”.

For the molecule `CC(C)OC(=O)OC(C)OC(=O)C(CCC(=O)O)CP(=O)(OC(C)OC(=O)OC(C)C)OC(C)OC(=O)OC(C)C` (stereo not shown) [Compound 24], in [7], the “oral bioavailability” value is listed as “excellent oral bioavailability”. Moreover, the Percentage remaining in [2] (0 min) was determined as 100%; in series [2] (30 min), 1%; in series [2] (60 min), 0%; in series [4] (0 min), 100%; in series [4] (30 min), 0%; in series [4] (60 min), 0%. Further, the Percentage remaining in series [8] (0 min) came out at 100%; in [8] (30 min), 27%; in series [8] (60 min) it was 8%; in [9] (0 min) it was 100%; in [9] (30 min), 106%; in series [9] (60 min), 75%. The “chemical stability” value in [3] is “sufficient chemical stability”. For the same molecule, the “in vitro metabolic stability” value in series [6] is “instability in plasma and liver subcellular fractions”.

Turning to `CCOC(=O)CCC(CP(=O)(OCOC(=O)C(C)(C)C)OCOC(=O)C(C)(C)C)C(=O)OCC` (stereo not shown) [Compound 18, Diethyl 2-({bis[(pivaloyloxy)methoxy]phosphoryl}methyl)pentanedioate], the Percentage remaining came to 100% in [1] (0 min); 1% in [1] (30 min); 0% in series [1] (60 min); 100% in series [2] (0 min); 2% in series [2] (30 min); 0% in series [2] (60 min). Further, the Percentage remaining is recorded as 0% in [4] (0 min); 0% in series [4] (30 min); 0% in series [4] (60 min); 100% in series [8] (0 min); 1% in series [8] (30 min); 0% in [8] (60 min). For the same molecule, the Percentage remaining came to 100% in [9] (0 min), 50% in [9] (30 min) and 18% in [9] (60 min). Besides, the “in vitro metabolic stability” value in series [6] is “too stable”.

For the molecule `CC(C)(C)C(=O)OCOC(=O)C(CCC(=O)O)CP(=O)(OCOC(=O)C(C)(C)C)OCOC(=O)C(C)(C)C` (stereo not shown) [Compound 23], in series [3], the “chemical stability” value is “sufficient chemical stability”. Also, the “permeability in vivo” value in series [5] is “highest permeability”. In addition, the “in vitro metabolic stability” value in series [6] was “instability in plasma and liver subcellular fractions”.
